Measured values as given in patent publication US5147876A, “2,6-di,2,4,6-, 2,5,6-tri and 2,4,5,6-tetra-substituted pyrimidines, their pharmaceutically acceptable salts, pharmaceutical compositions containing same and their use in the treatment of neurological diseases” (Mitsui Petrochemical Industries, Ltd., priority 1988, dated 1992).

Key:
[1] = test system: neuro-2a (mouse neuroblastoma cells); assay: Action on neuro-2a: proportion of cells containing outgrown neurites; format: cell-based; details: mean ± S.D.
Experimental: (§1) The effects of the compounds of this invention on neuroblastoma cells were examined by the following method.
(§2) Mouse neuro 2a cells in the logarithmic growth period in the Dulbecco's modified Eagle's medium DMEM, containing 100 units/ml of penicillin G sodium and 100 micrograms/ml of streptomycin sulfate]containing 10 % of FCS were seeded in a 48-well plate so that the number of cells was 1,000 cells/well, and cultured for one day in 0.25 ml of the culture fluid in each well in an incubator containing 5 % of carbon dioxide gas in air at 37° C. Then, a 4 % aqueous glutaraldehyde solution in the same amount as a medium (0.25 ml) was added, and the culture fluid was left to stand at room temperature for 2 hours to fix the cells. After washing with water, a 0.05 % aqueous solution of methylene blue was added to stain the cells Under a microscope, the number of cells containing outgrown neurites (cells having at least one neurite with a length of at least two times as large as the long diameter of the cell) was counted visually, and the proportion of these cells in the entire cells was calculated. The well was observed over 5 or more visual fields (at least 2 % of the entire surface area of the well) continuous to the left and right from a mark put at the center of the well, and more than 200 cells was counted. One drug compound was used in 6 different concentrations at most, and three runs were conducted for each concentrations.

[2] = Acute toxicity on mice; format: in vivo; details: mouse, in vivo, ip, 24 hours after administration; read-out: Estimated LD50
Experimental: The acute toxicity of the compounds of the invention was examined by the following method.
Male ddy-strain 5-week old mice, 4-6- per group, were used as experimental animals. Each of the compounds was intraperitoneally (i.p.), and the toxicity of the compound was assessed 24 hours after the administration.

[3] = test system: NS-20Y (mouse neuroblastoma cells); assay: Activity on NS-20Y cells: appearance of neurites; format: cell-based
Experimental: as §1, §2
Mouse neuroblastoma cells NS-20Y were similarly cultured in a dish coated with polyornithine, and the effects of the compounds were examined.

| Compound | Number of cells having neurites with a length at least two times the diameter of each cell/total number of cells ([1]; 0.03 mM) [%] | Number of cells having neurites with a length at least two times the diameter of each cell/total number of cells ([1]; 0.1 mM) [%] | LD50 at 24 h [2] [mg/kg] | Number of cells having neurites with a length at least two times the diameter of each cell/total number of cells ([1]; 0.3 mM) [%] | Number of cells having neurites with a length at least two times the diameter of each cell/total number of cells ([1]; 1 mM) [%] | Number of cells having neurites with a length at least two times the diameter of each cell/total number of cells ([1]; 0.01 mM) [%] | Number of cells in which neurites appeared/total number of cells ([3]; 24 hours, 0.1 mM) | Number of cells in which neurites appeared/total number of cells ([3]; 24 hours, 0.4 mM) | Number of cells in which neurites appeared/total number of cells ([3]; 48 hours, 0.4 mM) | Number of cells in which neurites appeared/total number of cells ([3]; 24 hours, 0.02 mM) |
| --- | --- | --- | --- | --- | --- | --- | --- | --- | --- | --- |
| CCN(CC)C(=O)N(C)c1ccnc(N2CCC(c3ccccc3)CC2)n1 [Compound 2302] | 8.0 ± 2.7 | 8.2 ± 4.7 | 500 to 1000 | – | – | – | – | – | – | – |
| Cc1cnc(N2CCCCC2)nc1N(C)C(=O)c1ccccc1 [Compound 408] | – | 9.1 ± 1.8 | 500 to 1000 | 9.6 ± 3.9 | – | – | – | – | – | – |
| CC(=O)N(C)c1ccnc(N2CCc3ccccc3C2)n1 [Compound 312] | 4.5 ± 0.4 | 9.7 ± 0.9 | > 1000 | – | – | – | – | – | – | – |
| CC1CCCN(c2nccc(N(C)C(=O)c3ccccc3)n2)C1 (centres unmarked) [Compound 138] | 6.3 ± 1.8 | 12.6 ± 4.1 | > 1000 | – | – | – | – | – | – | – |
| CCCC1CCN(c2nccc(N(C)C(=O)c3ccccc3)n2)CC1 [Compound 146] | 8.7 ± 2.0 | 40.0 ± 6.1 | > 1000 | – | – | – | – | – | – | – |
| CN(C(=O)c1ccccc1)c1ccnc(N2CCC(CO)CC2)n1 [Compound 2164] | – | 4.6 ± 1.1 | > 1000 | – | 11.7 ± 0.7 | – | – | – | – | – |
| CCCN(C(=O)c1ccccc1)c1nccc(N2CCC(c3ccccc3)CC2)n1 [Compound 644] | 26.1 ± 7.3 | 14.7 ± 7.3 | > 1000 | – | – | – | – | – | – | – |
| CN(C(=O)c1ccc(N)cc1)c1ccnc(N2CCC(c3ccccc3)CC2)n1 [Compound 2182] | 8.0 ± 3.2 | 2.7 ± 0.9 | 500 to 1000 | – | – | – | – | – | – | – |
| CN1C(=O)Cc2cnc(N3CCN(C(c4ccc(F)cc4)c4ccc(F)cc4)CC3)nc21 [Compound 3184] | 3.7 ± 1.1 | 13.9 ± 2.3 | 500 to 1000 | 18.4 ± 1.9 | 17.0 ± 2.1 | – | – | – | – | – |
| CN(Cc1ccccc1)c1ccnc(N2CCC(c3ccccc3)CC2)n1 [Compound 2278] | 13.9 ± 6.3 | 12.5 ± 1.3 | 500 to 1000 | – | – | – | – | – | – | – |
| CN(C(=O)Nc1ccccc1)c1ccnc(N2CCC(c3ccccc3)CC2)n1 [Compound 2218] | 9.7 ± 1.8 | 11.4 ± 6.1 | 500 to 1000 | – | – | – | – | – | – | – |
| CN(C(=O)N1CCOCC1)c1ccnc(N2CCC(c3ccccc3)CC2)n1 [Compound 2326] | 4.6 ± 1.4 | 8.3 ± 2.6 | 500 to 1000 | – | – | – | – | – | – | – |
| CN(C(=O)N1CCCCC1)c1ccnc(N2CCC(c3ccccc3)CC2)n1 [Compound 2210] | 9.5 ± 2.0 | 9.5 ± 1.9 | 500 to 1000 | – | – | – | – | – | – | – |
| CN(C(=O)c1ccccc1)c1ccnc(NC2CN3CCC2CC3)n1 (centres unmarked) [Compound 2342] | 5.9 ± 2.1 | 11.4 ± 1.4 | 500 to 1000 | – | – | – | – | – | – | – |
| CNc1nc(C)cc(N2CCC(c3ccccc3)CC2)n1 [Compound 1158] | 9.9 ± 1.4 | 18.4 ± 3.0 | < 250 | 22.1 ± 6.7 | 19.1 ± 2.7 | – | – | – | – | – |
| CN(C(=O)Cc1ccccc1)c1ccnc(N2CCC(c3ccccc3)CC2)n1 [Compound 2250] | – | 10.9 ± 3.9 | 500 to 1000 | 19.2 ± 1.0 | – | – | – | – | – | – |
| CN(C(=O)c1ccccc1)c1ccnc(N2CCC(OS(=O)(=O)c3ccccc3)CC2)n1 [Compound 2350] | – | – | 500 to 1000 | 5.9 ± 1.5 | 8.3 ± 2.0 | – | – | – | – | – |
| CN(C(=O)c1ccccc1)c1ccnc(N2CCC(C)(C)CC2)n1 [Compound 2116] | – | 34.2 ± 3.8 | 500 to 1000 | 8.2 ± 3.6 | – | – | – | – | – | – |
| CC1CC(C)CN(c2nccc(N(C)C(=O)c3ccccc3)n2)C1 (centres unmarked) [Compound 2004] | 6.6 ± 2.2 | 30.2 ± 6.4 | > 1000 | – | – | – | – | – | – | – |
| CC(C)C1CCN(c2nccc(N(C)C(=O)c3ccccc3)n2)CC1 [Compound 147-1] | 6.6 ± 0.4 | 30.5 ± 6.1 | > 1000 | – | – | – | – | – | – | – |
| CN(C(=O)c1ccccc1)c1ccnc(N2CCCC3CCCCC32)n1 (centres unmarked) [Compound 2156] | 8.6 ± 1.0 | 19.6 ± 5.3 | > 1000 | – | – | – | – | – | – | – |
| CN(C)c1nccc(N(C)C(=O)c2ccccc2)n1 [Compound 104] | 2.5 ± 0.8 | 4.1 ± 1.5 | 500 to 1000 | 7.7 ± 3.8 | 3.6 ± 1.4 | – | – | – | – | – |
| CN(C(=O)c1cccnc1)c1ccnc(N2CCC(c3ccccc3)CC2)n1 [Compound 2140] | 5.4 ± 3.9 | 17.0 ± 1.2 | > 1000 | – | – | – | – | – | – | – |
| CN1C(=O)Cc2cnc(N3CCN(C(c4ccc(Cl)cc4)c4ccc(Cl)cc4)CC3)nc21 [Compound 3176] | 7.3 ± 3.3 | 23.1 ± 4.8 | 500 to 1000 | 21.2 ± 4.9 | 14.6 ± 5.0 | – | – | – | – | – |
| CCOc1ccc(C(=O)N(C)c2ccnc(N3CCC(c4ccccc4)CC3)n2)cc1 [Compound 171-5] | – | 28.4 ± 2.2 | > 1000 | 32.7 ± 0.6 | 14.0 ± 4.1 | 7.2 ± 1.1 | – | – | – | – |
| CNc1ccnc(N2CCCCC2)n1 [Compound 1014] | – | 4.7 ± 0.7 | – | 7.6 ± 1.5 | – | – | 3/50 | 9/50 | 6/50 | – |
| CN(C(=O)Oc1ccccc1)c1ccnc(N2CCC(c3ccccc3)CC2)n1 [Compound 2334] | 13.2 ± 0.2 | 16.7 ± 0.8 | > 1000 | – | – | – | – | – | – | – |
| CN(C(=O)c1ccccc1)c1nc(N2CCC(c3ccccc3)CC2)ncc1F [Compound 432] | – | 2.9 ± 1.0 | – | 3.6 ± 1.7 | – | – | – | 7/50 | 4/50 | 7/50 |
